Experimental data published in US20190038597A1, “PREVENTION OF VASCULAR AND CARDIAC FIBROSIS VIA IRE1ALPHA INHIBITION” (McMaster University, priority 2017, published 2019).

What was measured:
IRE1α endonuclease = molecular target: T1, IRE1α endonuclease (Rattus norvegicus, UniProt A0A4Y1YQ52); test: XBP1 splicing assay in VSMCs; format: cell-based; conditions: tunicamycin (1 μg/ml) 6 h, 4μ8c 30 μM or STF-083010 60 μM, FIG. 1A
T1 construct: endogenous in cells; host or cells: primary aortic vascular smooth muscle cells from 5-week old WKY rats
Experimental: (§1) VSMCs were treated with tunicamycin (1 μg/ml) and either 4μ8c (30 μM) or STF-083010 (60 μM) for 6 h or 24 h. (A) Agarose gel for assessment of XBP1 splicing after 6 h of treatment with tunicamycin and densitometric quantification. (B) Western blot for assessment of ER chaperone expression after 24 h tunicamycin treatment with or without inhibition of IRE1α by 4μ8c. Data is presented as mean±SEM. *, p<0.05 vs. Vehicle; #, p<0.05 vs. Tm.
(§2) VSMCs were cultured in DMEM/F12 containing 1% FBS. Confluent cells were treated with L-ascorbic acid-2-phosphate (100 μg/ml) and either TGF-β1 (5 ng/ml) or Ang II (1 μM). (A) Agarose gel for assessment of TGF-β1-induced XBP1 splicing in VSMCs after 24 h. (B) Picro-Sirius Red assay for measurement of collagen deposition induced by combined TGF-β1 and AA2P treatment after 72 h, and inhibition by 4μ8c and STF-083010. (C) Western blot for assessment of collagen chaperone expression after treatment of TGF-β1 and 4μ8c for 48 h. *, p<0.05. (D) Measurement of Ang II-induced collagen production and inhibition by 4μ8c and STF-083010 after 72 h.
VSMCs were isolated from the aortas of 5-week old WKY rats using the explant method^29. The thoracic aorta was removed from the animal and placed in ice-cold 5× Antibiotics-Antimycotics solution (ThermoFisher). The adventitia was gently removed and the aorta was cut longitudinally. The endothelial layer was removed by gentle scraping with forceps. […]
Total RNA was extracted from cultured cells and rat tissues using the TRIzol reagent (ThermoFisher) according to manufacturer's instructions. RNA concentration and purity were measured using a Nanodrop ND-1000 spectrophotometer (NanoDrop Technologies, Inc.). […]
Aortic VSMCs were isolated from normotensive WKY rats and used for in vitro experiments. […] To test the ability of these compounds to block the IRE1α endonuclease, XBP1 splicing was measured in VSMCs treated with the ER stress inducer tunicamycin for 6 h with or without pre-treatment by 4μ8c or STF-083010. […]

GRP78, GRP94 and PDI = test: Western blot of ER chaperone / ER stress marker expression in VSMCs; format: cell-based, rat; conditions: 24 h tunicamycin treatment, FIG. 1B
Experimental: as §1, §2
VSMCs were isolated from the aortas of 5-week old WKY rats using the explant method^29. The thoracic aorta was removed from the animal and placed in ice-cold 5× Antibiotics-Antimycotics solution (ThermoFisher). The adventitia was gently removed and the aorta was cut longitudinally. The endothelial layer was removed by gentle scraping with forceps. The aorta was cut into 3 mm^2 squares and placed on a 6 well plate in DMEM/F12 medium containing 10% fetal bovine serum (FBS). Explants were incubated undisturbed in a 5% CO2 incubator at 37° C. for 1 week and then passaged. […]
Cells were lysed in 1× Laemmli buffer and protein content was quantified using the BioRad DC Protein Assay (BioRad, Mississauga, Canada). […]

VSMCs = test: Picro-Sirius Red assay of collagen synthesis in VSMCs; format: cell-based, rat
Experimental: as §2
VSMCs were isolated from the aortas of 5-week old WKY rats using the explant method^29. The thoracic aorta was removed from the animal and placed in ice-cold 5× Antibiotics-Antimycotics solution (ThermoFisher). The adventitia was gently removed and the aorta was cut longitudinally. The endothelial layer was removed by gentle scraping with forceps. The aorta was cut into 3 mm^2 squares and placed on a 6 well plate in DMEM/F12 medium containing 10% fetal bovine serum (FBS). Explants were incubated undisturbed in a 5% CO2 incubator at 37° C. for 1 week and then passaged. Sprague-Dawley renal fibroblasts were purchased (Cell Biologics) and cultured in low glucose DMEM/F12 medium containing 10% FBS, streptomycin (100 μgimp, and penicillin (100 U/ml, Invitrogen, Burlington, ON). Cells between passages 5 and 10 were used for experiments. Cells were cultured in medium containing 1% FBS overnight before treatment.
Collagen synthesis was measured using a Picro-Sirius Red-based assay as previously described^30. Briefly, cells cultured on a 96 well plate were fixed in methanol for 10 minutes at −20° C. Cells were washed once with PBS and incubated with Picrosirius Red stain (0.1% Direct Red 80 in saturated picric acid) for 1 h at room temperature. After the staining solution was removed, the cells were washed three times with 0.1% acetic acid and then imaged. The dye was then eluted with 0.1 N NaOH for 10 minutes on a rocking platform. Absorbance at 540 nm was measured using a Spectramax Plus Microplate Reader (Molecular Devices).
Cells were co-treated with either 4μ8c or S′TF-083010 to inhibit IRE1α endonuclease activity. TGF-β1 induced XBP1 splicing after 24 h, which was blocked by co-treatment with 4μ8c (FIG. 2A). Collagen production was measured using a Picro-Sirius Red-based colorimetric assay. TGF-β1 combined with AA2P induced collagen synthesis in the VSMCs, which was inhibited by co-treatment with 4μ8c or STF-083010 (FIG. 2B).

T1 sequence (A0A4Y1YQ52 21-977): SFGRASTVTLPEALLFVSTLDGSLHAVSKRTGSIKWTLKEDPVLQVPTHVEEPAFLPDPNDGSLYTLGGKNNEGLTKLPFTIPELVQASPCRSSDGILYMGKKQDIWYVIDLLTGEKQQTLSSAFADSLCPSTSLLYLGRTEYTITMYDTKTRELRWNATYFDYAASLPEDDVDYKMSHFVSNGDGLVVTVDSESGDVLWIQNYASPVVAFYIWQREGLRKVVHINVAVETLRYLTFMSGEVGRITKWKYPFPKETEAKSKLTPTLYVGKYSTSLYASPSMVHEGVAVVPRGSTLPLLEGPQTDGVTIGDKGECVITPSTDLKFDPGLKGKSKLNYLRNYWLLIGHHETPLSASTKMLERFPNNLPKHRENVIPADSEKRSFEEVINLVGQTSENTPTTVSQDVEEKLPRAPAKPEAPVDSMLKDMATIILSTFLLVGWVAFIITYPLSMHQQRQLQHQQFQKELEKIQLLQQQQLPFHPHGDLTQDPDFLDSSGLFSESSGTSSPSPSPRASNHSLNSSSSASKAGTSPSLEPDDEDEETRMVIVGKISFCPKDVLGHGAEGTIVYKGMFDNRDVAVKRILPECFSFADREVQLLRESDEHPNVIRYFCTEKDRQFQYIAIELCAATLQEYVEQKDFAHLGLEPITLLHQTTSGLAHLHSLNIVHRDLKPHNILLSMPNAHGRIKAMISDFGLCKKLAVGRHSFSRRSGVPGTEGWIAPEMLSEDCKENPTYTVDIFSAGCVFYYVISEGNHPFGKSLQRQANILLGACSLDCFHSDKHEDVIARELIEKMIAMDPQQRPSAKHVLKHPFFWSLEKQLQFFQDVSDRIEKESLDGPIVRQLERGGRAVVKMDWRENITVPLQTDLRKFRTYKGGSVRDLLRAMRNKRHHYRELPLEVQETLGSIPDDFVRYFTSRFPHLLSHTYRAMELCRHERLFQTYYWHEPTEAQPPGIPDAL

O=S(=O)(/N=C/c1c(O)ccc2ccccc12)c1cccs1 [STF-083010, N-[(2-Hydroxy-1-naphthyl)methylene]-2-thiophenesulfonamide]
spliced-to-unspliced XBP1 ratio (IRE1α endonuclease): reduced
elevated expression levels of ER stress markers GRP78, GRP94 and PDI (GRP78, GRP94 and PDI): reduced
collagen synthesis induced by TGF-β1 combined with AA2P (VSMCs; 72 h, co-treatment, FIG. 2B): inhibited
collagen synthesis induced by Ang II (VSMCs; Ang II (1 μM) 72 h, FIG. 2D): inhibition
